From US20240190855A1 (Relay Therapeutics, Inc., priority 2021, published 2024)

molecular target: T1, CDK2/Cyclin E complex (Homo sapiens, UniProt P24941); assay: CDK2/Cyclin E fluorescence-based microfluidic mobility shift assay (CDK2 Biochemical Caliper Assay); conditions: read-out: Biochemical CDK2/CyclinE Caliper IC50
T1 construct: purchased Eurofins 14-475
How it was run: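 Microfluidic mobility-shift readout after EDTA termination measured phosphorylation of fluorescent FL Peptide 18 (1.5 uM final) in a 20 hr room-temperature reaction. Compounds were tested at 11 concentrations (3-fold).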

SMILES | IC50 [nM]
c1cn2nc3c(c2c(Nc2cc(C4CCCC4)[nH]n2)n1)CCC3 [Example 869] | 1000 to 100000
COCc1cc(C(=O)Nc2cc([C@@H]3CC[C@H](Oc4nncc5cnccc45)C3)[nH]n2)n(C)n1 (single isomer, unassigned) [Example 535] | 250 to 1000
Cc1cc(CC(=O)Nc2cc([C@@H]3CC[C@@H](N(C)C(=O)NC(C)C)C3)[nH]n2)on1 (single isomer, unassigned) [Example 142] | 1000 to 100000
Cc1cn2nc(Nc3cc(C4CCCC4)[nH]n3)cc(C)c2n1 [Example 832] | 1000 to 100000
COCc1cc(C(=O)Nc2cc([C@H]3CC[C@@H](Oc4cncnc4)C3)[nH]n2)n(C)n1 (single isomer, unassigned) [Example 387] | 1000 to 100000
COCc1cc(C(=O)Nc2cc([C@@H]3CC[C@@](C)(CC(=O)NC(C)C)C3)[nH]n2)n(C)n1 (single isomer, unassigned) [Example 447] | 1000 to 100000
Cc1cncc(O[C@@H]2CC[C@H](c3cc(NC(=O)Cc4cc(C)no4)n[nH]3)C2)c1 (single isomer, unassigned) [Example 355] | 250 to 1000
Cc1nc(Nc2cc(C3CCCC3)[nH]n2)cc2nncn12 [Example 797] | 1000 to 100000
COCc1cc(C(=O)Nc2cc([C@H]3C[C@@H](COc4cn[nH]c4C(C)C)C3)[nH]n2)n(C)n1 [Example 587] | 100 to 250
COCc1cc(C(=O)Nc2cc([C@H]3CC[C@@H](c4ccc(C)nn4)C3)[nH]n2)n(C)n1 (single isomer, unassigned) [Example 572] | 1000 to 100000
Cc1cc(CC(=O)Nc2cc([C@H]3CC[C@@H](Oc4ccccc4)C3)[nH]n2)on1 (single isomer, unassigned) [Example 351] | 100 to 250
Cc1cc(CC(=O)Nc2cc([C@H]3CC[C@@H](Cc4nncn4C(C)C)C3)[nH]n2)on1 (single isomer, unassigned) [Example 370] | 1000 to 100000
COCc1cc(C(=O)Nc2cc([C@@H]3CC[C@@H](c4ccc(C)nn4)C3)[nH]n2)n(C)n1 (single isomer, unassigned) [Example 574] | 1000 to 100000
COCc1cc(C(=O)Nc2cc([C@@H]3CC[C@H](Oc4cccnc4C(C)C)C3)[nH]n2)n(C)n1 (single isomer, unassigned) [Example 473] | 100 to 250
COCc1cc2c(Nc3cc([C@H]4C[C@@H](OC(=O)NC(C)(C)CN5CCOCC5)CO4)[nH]n3)nccn2n1 [Example 703] | 250 to 1000
CC(C)NC(=O)O[C@@H]1CO[C@H](c2cc(NC(=O)c3cc(CN4CCCC4)nn3C)n[nH]2)C1 [Example 634] | 100 to 250
c1cc2nc(Nc3cc(C4CCCC4)[nH]n3)ccn2n1 [Example 877] | 250 to 1000
CS(=O)(=O)N1CCC(Nc2cc(C3CCCC3)[nH]n2)CC1 [Example 857] | 1000 to 100000
Cc1cc(CC(=O)Nc2cc([C@@H]3CC[C@H](Cc4nncn4C(C)C)C3)[nH]n2)on1 (single isomer, unassigned) [Example 371] | 1000 to 100000
CC(C)NC(=O)N[C@@H]1CC[C@H](c2cc(Nc3ncccn3)n[nH]2)C1 (single isomer, unassigned) [Example 123] | 1000 to 100000
CC(C)NC(=O)O[C@H]1CC[C@@H](c2cc(N)n[nH]2)C1 (single isomer, unassigned) [Example 418] | 1000 to 100000
COCc1cc(C(=O)Nc2cc([C@@H]3CC[C@H](Oc4nccnc4C)C3)[nH]n2)n(C)n1 (single isomer, unassigned) [Example 495] | 250 to 1000

SMILES | IC50 [nM]
Cc1[nH]nc2nccc(Nc3cc(C4CCCC4)[nH]n3)c12 [Example 827] | 1000 to 100000
COCc1cc2c(Nc3cc([C@H]4C[C@@H](OC(=O)N[C@H]5CC[C@@H](OC)CC5)CO4)[nH]n3)nccn2n1 [Example 693] | 1000 to 100000
CC(C)NC(=O)O[C@H]1CC[C@@H](c2cc(NC=O)n[nH]2)C1 (single isomer, unassigned) [Example 441] | 250 to 1000
COCc1cc2c(Nc3cc([C@H]4C[C@@H](OC(=O)N[C@@H](C)CC(F)(F)F)CO4)[nH]n3)nccn2n1 (single isomer, unassigned) [Example 739] | ≤ 100
Cn1cc2ccnc(Nc3cc([C@H]4C[C@@H](OC(=O)NC5(C)CC5)CO4)[nH]n3)c2n1 [Example 734] | 1000 to 100000
COCc1cc2c(Nc3cc([C@H]4C[C@@H](OC(=O)NC(C)(C)C)CO4)[nH]n3)nccn2n1 (single isomer, unassigned) [Example 617] | ≤ 100
COCc1cc2c(Nc3cc([C@H]4C[C@@H](COc5cn[nH]c5C(C)(C)C)C4)[nH]n3)nccn2n1 [Example 630] | ≤ 100
CC1(NC(=O)O[C@H]2CO[C@@H](c3cc(Nc4ncnc5[nH]ccc45)n[nH]3)C2)CC1 [Example 738] | 250 to 1000
C[C@H]1CC[C@H](C)N1C(=O)O[C@H]1CO[C@@H](c2cc(Nc3ccc4c(c3)C(C)(C)NC4=O)n[nH]2)C1 (single isomer, unassigned) [Example 591] | ≤ 100
CC1(NC(=O)O[C@H]2CO[C@@H](c3cc(NC(=O)c4cnn(CCOC(F)(F)F)c4)n[nH]3)C2)CC1 [Example 886] | ≤ 100
Cc1ccc(O[C@H]2CC[C@@H](c3cc(NC(=O)Cc4cc(C)no4)n[nH]3)C2)cn1 (single isomer, unassigned) [Example 356] | 250 to 1000
c1cc2ncsc2c(Nc2cc([C@H]3CC[C@@H](Oc4nscc4C4CC4)C3)[nH]n2)n1 (single isomer, unassigned) [Example 404] | ≤ 100
Cn1nc(OC(F)(F)F)cc1C(=O)Nc1cc([C@H]2C[C@@H](OC(=O)NC3(C)CC3)CO2)[nH]n1 [Example 787] | ≤ 100
CC(C)NC(=O)O[C@H]1CC[C@@H](c2cc(Nc3ccc4c(n3)C(C)(C)NC4=O)n[nH]2)C1 (single isomer, unassigned) [Example 528] | ≤ 100
Cc1c(F)c(Nc2cc(C3CCCC3)[nH]n2)nc2ccccc12 [Example 863] | 1000 to 100000
Cc1cc(C(=O)O)c(Nc2cc(C3CCCC3)[nH]n2)nc1C [Example 874] | 1000 to 100000
Cc1cc(Nc2cc(C3CCCC3)[nH]n2)n2nc(C)cc2n1 [Example 802] | 1000 to 100000
C[C@H](NC(=O)O[C@H]1CO[C@@H](c2cc(NC(=O)c3cc(COC(F)F)nn3C)n[nH]2)C1)C1CC1 [Example 772] | ≤ 100
Cc1cc(CC(=O)Nc2cc([C@@H]3CC[C@H](CC(=O)O)C3)[nH]n2)on1 (single isomer, unassigned) [Example 342] | 1000 to 100000
Cn1nc(COC(F)(F)F)cc1C(=O)Nc1cc([C@H]2C[C@@H](OC(=O)NC3(C)COC3)CO2)[nH]n1 [Example 888] | ≤ 100
COCc1cc(C(=O)Nc2cc([C@H]3C[C@@H](CC(=O)NC(C)C)C3)[nH]n2)n(C)n1 [Example 360] | 1000 to 100000

Results, then the molecule that gave them:

IC50 [nM] | SMILES
≤ 100 | COCc1cc(C(=O)Nc2cc([C@H]3CC[C@@H](Oc4nccnc4C(C)C)C3)[nH]n2)n(C)n1 (single isomer, unassigned) [Example 508]
≤ 100 | CC(C)c1ccnnc1O[C@H]1CC[C@@H](c2cc(Nc3nccc4ncsc34)n[nH]2)C1 [Example 437]
≤ 100 | COCc1cc2c(Nc3cc([C@H]4C[C@@H](OC(=O)NC(C)(C)COC)CO4)[nH]n3)nccn2n1 [Example 695]
≤ 100 | C[C@H](NC(=O)O[C@@H]1CO[C@H](c2cc(NC(=O)c3cc(OCC(F)(F)F)nn3C)n[nH]2)C1)C1CC1 [Example 920]
≤ 100 | CC1(NC(=O)O[C@H]2CO[C@@H](c3cc(Nc4ncnc5ncccc45)n[nH]3)C2)CC1 [Example 761]
≤ 100 | Cc1cc(CC(=O)Nc2cc([C@H]3CC[C@@H](Oc4nnccc4C(C)C)C3)[nH]n2)on1 (single isomer, unassigned) [Example 97]
≤ 100 | CCOCc1cc2c(Nc3cc([C@H]4C[C@@H](OC(=O)NC(C)C)CO4)[nH]n3)nccn2n1 [Example 653]
≤ 100 | Cn1nc(COC(F)(F)F)cc1C(=O)Nc1cc([C@H]2C[C@@H](OC(=O)NC34CC(C#N)(C3)C4)CO2)[nH]n1 [Example 914]
≤ 100 | Cc1ncccc1O[C@H]1CC[C@@H](c2cc(Nc3ncnc4ncccc34)n[nH]2)C1 (single isomer, unassigned) [Example 487]
≤ 100 | COCc1cc2c(Nc3cc([C@H]4C[C@@H](COC(=O)N5[C@@H](C)CC[C@@H]5C)C4)[nH]n3)nccn2n1 [Example 621]
≤ 100 | Cc1ncccc1O[C@H]1CC[C@@H](c2cc(Nc3nccn4nccc34)n[nH]2)C1 (single isomer, unassigned) [Example 485]
≤ 100 | CC(C)NC(=O)O[C@H]1CO[C@@H](c2cc(Nc3nccn4nc(COC(F)F)cc34)n[nH]2)C1 [Example 667]
≤ 100 | Cc1cc(CC(=O)Nc2cc([C@@H]3CC[C@H](Oc4nnccc4C(C)C)C3)[nH]n2)on1 (single isomer, unassigned) [Example 104]
≤ 100 | COCc1cc(C(=O)Nc2cc([C@H]3C[C@@H](Oc4[nH]ncc4C(C)C)CO3)[nH]n2)n(C)n1 [Example 896]
≤ 100 | COCc1cc2c(Nc3cc([C@H]4C[C@@H](OC(=O)NC(C)(C)C(F)F)CO4)[nH]n3)nccn2n1 [Example 647]
≤ 100 | COCc1cc(C(=O)Nc2cc([C@H]3CC[C@@H](Oc4ncccc4C(C)C)C3)[nH]n2)n(C)n1 (single isomer, unassigned) [Example 506]
≤ 100 | CC(C)(C)n1cnnc1OC[C@H]1C[C@@H](c2cc(Nc3nccn4nccc34)n[nH]2)C1 [Example 637]
≤ 100 | CC(C)c1ccnnc1O[C@@H]1CO[C@H](c2cc(Nc3nccc4ncsc34)n[nH]2)C1 [Example 524]
≤ 100 | CO[C@H](C)c1cc2c(Nc3cc([C@H]4C[C@@H](OC(=O)NC5(C)CC5)CO4)[nH]n3)nccn2n1 (single isomer, unassigned) [Example 892]
≤ 100 | COCc1nc2ccnc(Nc3cc([C@@H]4C[C@H](OC(=O)NC(C)C)CO4)[nH]n3)c2s1 (single isomer, unassigned) [Example 466]
